In patent EP4813986A1, “COMPOUND FOR REDUCING SERUM CONCENTRATION OF RBP4, AND USE” (Heronova Pharmaceuticals, LLC, priority 2023, dated 2025):
Like-named read-outs stand apart in the source and are kept apart here.

Columns and labels:
[1] = Pharmacokinetic test, single oral dose, plasma LC-MS/MS; assay type: in vivo; details: mouse, male ICR mice; for half-life: read-out: half-life T1/2 (converted); for Cmax: read-out: peak concentration Cmax; for Tmax: read-out: peak time Tmax
Protocol: Test Method: Three ICR mice (male) were used for each compound, with five groups in total. Mice were treated with a single oral dose of 10 mg/kg or 5 mg/kg. For each mouse, blood samples were collected at 0.25, 0.5, 1, 2, 4, and 8 hours after administration. Whole blood samples were placed in test tubes containing EDTA-K2, inverted up and down several times, and then centrifuged at 6000 rpm, 4°C for 15 minutes to obtain plasma. The concentration of the compound in plasma samples was determined using the LC-MS/MS method. Table 4 Pharmacokinetic Results of Different Compounds

in vitro = details: microsomes, pH 7.4
Protocol: Phosphate buffer preparation: Weigh 7.098 g of disodium hydrogen phosphate, add 500 mL of pure water and dissolve by ultrasonication to obtain a disodium hydrogen phosphate solution. Weigh 3.400 g of potassium dihydrogen phosphate, add 250 mL of pure water and dissolve by ultrasonication to obtain a potassium dihydrogen phosphate solution. The disodium hydrogen phosphate solution and potassium dihydrogen phosphate solution were mixed and adjusted to pH 7.4+0.2.
10 mM NADPH preparation: Weigh an appropriate amount of NADPH (reduced coenzyme II), freshly prepare a 10 mM working solution with phosphate buffer, and the final concentration is 1 mM.
Incubation system preparation: Prepare the suspension into the incubation plate according to Table 5, and pre-incubate in a 37°C water bath for 10 min. Table 5 Incubation System Preparation
2 µL of positive control or test compound working solution was added to 358 µL of the incubation system, mixed uniformly by vortexing, and all samples were prepared in duplicate. 40 µL of 10 mM NADPH was added to the system, mixed uniformly by low-speed vortexing, and the reaction timing was started. […] Centrifuge at 4700 rpm, 4°C for 15 minutes to precipitate proteins. Transfer 100 µL of the supernatant to the sample plate, add 100 µL of pure water and mix well for UPLC-MS/MS analysis. Table 6 Liver Microsome Stability Results

RBP4 = molecular target: T1, RBP4 (Mus musculus, UniProt Q00724); test: Plasma RBP4 content detection test (ELISA) after single oral dose; assay type: in vivo, ICR male mice; details: 5 mg/kg oral, maximum reduction within 5 to 24 hours vs 0-hour value
T1 construct: from tissue; host or cells: plasma of ICR male mice
Protocol: Test Method: ICR male mice aged 7 to 8 weeks were adaptively fed for 3 to 7 days and randomly divided into groups (4 mice per group), and fasted for 12 hours before the test. Orbital venous blood samples were collected and plasma was separated before administration on the test day (0-hour value as the initial content). Then, test compounds at a dose of 1 mg/kg or 5 mg/kg were orally administered (vehicle: 5% DMSO + 10% cyclodextrin), and vehicle (5% DMSO + 10% cyclodextrin) was orally administered as a control group. Orbital venous blood samples were collected and plasma was separated at 5, 8, 10, 12, and 24 hours after compound administration. The RBP4 content in plasma samples was detected using Mouse RBP4 (Retinol Binding Protein 4, Plasma) ELISA Kit (immunoway, KE1574), the reduction rate was calculated, and the maximum reduction rate within 5 to 24 hours was selected. Reduction rate of RBP4 content in mouse plasma at different sampling time points = (Initial RBP4 content - RBP4 content at sampling point) / Initial RBP4 content. Table 2 Plasma RBP4 Reduction Levels of Different Compounds

[2] = in vivo, single oral dose 10 mg/kg

| SMILES | AUC(0-t) [1, 2] | half-life [1, 2] | Cmax [1, 2] | Tmax [1, 2] | half-life at 1 µM (in vitro; human) | microsomal CLint at 1 µM (in vitro; human) | half-life at 1 µM (in vitro; mouse) | microsomal CLint at 1 µM (in vitro; mouse) | Maximum Plasma RBP4 Reduction Rate (5 mg/kg dose) (RBP4) | AUC(0-t) ([1]; single oral dose 10 mg/kg) | half-life ([1]; single oral dose 10 mg/kg) | Cmax ([1]; single oral dose 10 mg/kg) | Tmax ([1]; single oral dose 10 mg/kg) | AUC(0-t) ([1]; single oral dose 5 mg/kg) | half-life ([1]; single oral dose 5 mg/kg) | Cmax ([1]; single oral dose 5 mg/kg) | Tmax ([1]; single oral dose 5 mg/kg) |
| --- | --- | --- | --- | --- | --- | --- | --- | --- | --- | --- | --- | --- | --- | --- | --- | --- | --- |
| CC(=O)N1CCc2c(C(=O)N3CC=C(c4ccc(F)c(F)c4C(F)(F)F)CC3)n[nH]c2C1 [Compound 1] | 2460 ng·h/mL | 167 min | 1240 ng/mL | 30 min | > 180 min | < 7.44 µL/min/mg | 45.9 min | 30.2 µL/min/mg | 41% | – | – | – | – | – | – | – | – |
| CC(=O)N1CCc2c(C(=O)N3CC=C(c4cccc(F)c4C(F)(F)F)CC3)n[nH]c2C1 [Compound 2] | – | – | – | – | 94.4 min | 14.7 µL/min/mg | 18.8 min | 73.6 µL/min/mg | – | – | – | – | – | – | – | – | – |
| COCCN1CCc2c(C(=O)N3CC=C(c4cccc(F)c4C(F)(F)F)CC3)n[nH]c2C1 [Compound 3] | – | – | – | – | 18.7 min | 74 µL/min/mg | 26.3 min | 52.7 µL/min/mg | – | 119 ng·h/mL | 442 min | 159 ng/mL | 30 min | – | – | – | – |
| COCC(=O)N1CCc2c(C(=O)N3CC=C(c4cccc(F)c4C(F)(F)F)CC3)n[nH]c2C1 [Compound 6] | – | – | – | – | 63 min | 22 µL/min/mg | 9.46 min | 146 µL/min/mg | – | 383 ng·h/mL | 230 min | 285 ng/mL | 30 min | – | – | – | – |
| COCC(=O)N1CCc2c(C(=O)N3CC=C(c4ccc(F)c(F)c4C(F)(F)F)CC3)n[nH]c2C1 [Compound 7] | – | – | – | – | 103 min | 13.4 µL/min/mg | 15.6 min | 89 µL/min/mg | 64% | 1530 ng·h/mL | 89.4 min | 1050 ng/mL | 30 min | – | – | – | – |
| [2H]C([2H])([2H])OCC(=O)N1CCc2c(C(=O)N3CC=C(c4cccc(F)c4C(F)(F)F)CC3)n[nH]c2C1 [Compound 8] | – | – | – | – | 70.4 min | 19.7 µL/min/mg | 6.79 min | 204 µL/min/mg | – | 556 ng·h/mL | 199 min | 515 ng/mL | 30 min | – | – | – | – |
| [2H]C([2H])([2H])OCC(=O)N1CCc2c(C(=O)N3CC=C(c4ccc(F)c(F)c4C(F)(F)F)CC3)n[nH]c2C1 [Compound 9] | – | – | – | – | 130 min | 10.6 µL/min/mg | 17.2 min | 80.8 µL/min/mg | 82% | 1030 ng·h/mL | 40 min | 1090 ng/mL | 30 min | – | – | – | – |
| NC(=O)CN1CCc2c(C(=O)N3CC=C(c4ccc(F)c(F)c4C(F)(F)F)CC3)n[nH]c2C1 [Compound 10] | – | – | – | – | > 180 min | < 7.44 µL/min/mg | 18.6 min | 74.5 µL/min/mg | 72% | 1200 ng·h/mL | 113 min | 468 ng/mL | 30 min | – | – | – | – |
| CNC(=O)CN1CCc2c(C(=O)N3CC=C(c4ccc(F)c(F)c4C(F)(F)F)CC3)n[nH]c2C1 [Compound 11] | – | – | – | – | 140 min | 9.9 µL/min/mg | 11.4 min | 121 µL/min/mg | – | – | – | – | – | – | – | – | – |
| CN(C)C(=O)CN1CCc2c(C(=O)N3CC=C(c4ccc(F)c(F)c4C(F)(F)F)CC3)n[nH]c2C1 [Compound 12] | – | – | – | – | 126 min | 11 µL/min/mg | 4.2 min | 330 µL/min/mg | – | – | – | – | – | – | – | – | – |

More lines, now with the values ahead:

| AUC(0-t) [1, 2] | half-life [1, 2] | Cmax [1, 2] | Tmax [1, 2] | half-life at 1 µM (in vitro; human) | microsomal CLint at 1 µM (in vitro; human) | half-life at 1 µM (in vitro; mouse) | microsomal CLint at 1 µM (in vitro; mouse) | Maximum Plasma RBP4 Reduction Rate (5 mg/kg dose) (RBP4) | AUC(0-t) ([1]; single oral dose 10 mg/kg) | half-life ([1]; single oral dose 10 mg/kg) | Cmax ([1]; single oral dose 10 mg/kg) | Tmax ([1]; single oral dose 10 mg/kg) | AUC(0-t) ([1]; single oral dose 5 mg/kg) | half-life ([1]; single oral dose 5 mg/kg) | Cmax ([1]; single oral dose 5 mg/kg) | Tmax ([1]; single oral dose 5 mg/kg) | SMILES |
| --- | --- | --- | --- | --- | --- | --- | --- | --- | --- | --- | --- | --- | --- | --- | --- | --- | --- |
| – | – | – | – | > 180 min | < 7.44 µL/min/mg | 30.2 min | 45.8 µL/min/mg | 67% | 6040 ng·h/mL | – | 1200 ng/mL | 120 min | – | – | – | – | O=C(c1n[nH]c2c1CCNC2)N1CC=C(c2cccc(F)c2C(F)(F)F)CC1 [Compound 13] |
| – | – | – | – | > 180 min | < 7.44 µL/min/mg | 30 min | 46.2 µL/min/mg | 53% | – | – | – | – | 6000 ng·h/mL | 452 min | 364 ng/mL | 318 min | O=C(c1n[nH]c2c1CCNC2)N1CC=C(c2ccc(F)c(F)c2C(F)(F)F)CC1 [Compound 14] |
| – | – | – | – | > 180 min | < 7.44 µL/min/mg | 17.4 min | 79.9 µL/min/mg | 77% | – | – | – | – | 319 ng·h/mL | 185 min | 141 ng/mL | 30 min | NC(=O)CN1CCc2c(C(=O)N3CC=C(c4cccc(F)c4C(F)(F)F)CC3)n[nH]c2C1 [Compound 15] |
| – | – | – | – | > 180 min | < 7.44 µL/min/mg | > 180 min | < 7.44 µL/min/mg | – | – | – | – | – | 490 ng·h/mL | 101 min | 235 ng/mL | 30 min | NC(=O)C(=O)N1CCc2c(C(=O)N3CC=C(c4ccc(F)c(F)c4C(F)(F)F)CC3)n[nH]c2C1 [Compound 16] |
| 17800 ng·h/mL | 201 min | 2860 ng/mL | 108 min | > 180 min | < 7.44 µL/min/mg | 36.4 min | 38.1 µL/min/mg | – | – | – | – | – | – | – | – | – | O=C(c1n[nH]c2c1COCC2)N1CC=C(c2ccc(F)c(F)c2C(F)(F)F)CC1 [Compound 17] |
| – | – | – | – | > 180 min | < 7.44 µL/min/mg | 18.8 min | 73.5 µL/min/mg | – | – | – | – | – | – | – | – | – | O=C1NCC[C@@H]1N1CCc2c(C(=O)N3CC=C(c4ccc(F)c(F)c4C(F)(F)F)CC3)n[nH]c2C1 [Compound 18] |
| – | – | – | – | > 180 min | < 7.44 µL/min/mg | 74.6 min | 18.6 µL/min/mg | – | 41.9 ng·h/mL | 119 min | 22.3 ng/mL | 50 min | – | – | – | – | CC(C(N)=O)C(=O)N1CCc2c(C(=O)N3CC=C(c4ccc(F)c(F)c4C(F)(F)F)CC3)n[nH]c2C1 (stereo not shown) [Compound 19] |
| – | – | – | – | 99 min | 14 µL/min/mg | 13.7 min | 101 µL/min/mg | – | 208 ng·h/mL | 97.8 min | 112 ng/mL | 30 min | – | – | – | – | O=C1NCC[C@@H]1N1CCc2c(C(=O)N3CC=C(c4cccc(F)c4C(F)(F)F)CC3)n[nH]c2C1 [Compound 20] |
| – | – | – | – | > 180 min | < 7.44 µL/min/mg | 136 min | 10.2 µL/min/mg | 14% | 1200 ng·h/mL | 152 min | 519 ng/mL | 30 min | – | – | – | – | NC(=O)C(=O)N1CCc2c(C(=O)N3CC=C(c4cccc(F)c4C(F)(F)F)CC3)n[nH]c2C1 [Compound 21] |
| – | – | – | – | 54.3 min | 25.5 µL/min/mg | 10.7 min | 130 µL/min/mg | – | – | – | – | – | – | – | – | – | O=C(c1n[nH]c2c1COCC2)N1CC=C(c2cccc(F)c2C(F)(F)F)CC1 [Compound 23] |
| – | – | – | – | – | – | – | – | – | 8830 ng·h/mL | 92.4 min | 3230 ng/mL | 40.2 min | – | – | – | – | CC(=O)N1CCc2c(C(=O)N3CCC(c4ccc(F)c(F)c4C(F)(F)F)CC3)n[nH]c2C1 [reference compound, 1-(3-(4-(3,4-difluoro-2-(trifluoromethyl)phenyl)piperidine-1-carbonyl)-4,5-dihydro-1H-pyrazolo[3,4-c]pyridin-6(7H)-yl)ethanone, reference compound] |
